According to ChEMBL document CHEMBL1201862, “PubChem BioAssay data set” (2004):
Active and inactive are the calls of the source.

Assays:
[1] = molecular target: Induced myeloid leukemia cell differentiation protein Mcl-1 (Homo sapiens, UniProt Q07820); format: functional
[2] = general mammalian cell viability loss – inhibitor set, cherry-pick, set 2, cytotoxicity control for miR-122 modulator project, dose response (AID 720697); format: functional, cell-based
Mu-type opioid receptor = Mu-type opioid receptor (Homo sapiens, UniProt P35372); format: functional, cell-based;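 also: U2OS cells with beta-arrestin recruitment to OPRM1 by beta-gal complementation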
Mu-type opioid receptor, sequence (P35372 whole entry): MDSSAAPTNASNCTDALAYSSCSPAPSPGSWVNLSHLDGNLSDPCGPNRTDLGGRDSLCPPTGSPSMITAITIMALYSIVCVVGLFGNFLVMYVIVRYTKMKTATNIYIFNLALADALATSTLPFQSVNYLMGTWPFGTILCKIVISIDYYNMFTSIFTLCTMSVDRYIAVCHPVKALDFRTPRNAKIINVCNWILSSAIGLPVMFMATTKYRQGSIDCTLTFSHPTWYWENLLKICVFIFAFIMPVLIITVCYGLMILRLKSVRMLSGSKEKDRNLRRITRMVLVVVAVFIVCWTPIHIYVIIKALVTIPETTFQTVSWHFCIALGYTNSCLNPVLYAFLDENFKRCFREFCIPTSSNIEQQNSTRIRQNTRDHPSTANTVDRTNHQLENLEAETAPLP

[3] = molecular target: 5-hydroxytryptamine receptor 2A (Mus musculus, UniProt P35363); format: functional, cell-based;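 also: CHO-K1 cells with tagged receptor and beta-arrestin; agonist potency measured as compound-induced activation of the receptor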
5-hydroxytryptamine receptor 2A, sequence (P35363 whole entry): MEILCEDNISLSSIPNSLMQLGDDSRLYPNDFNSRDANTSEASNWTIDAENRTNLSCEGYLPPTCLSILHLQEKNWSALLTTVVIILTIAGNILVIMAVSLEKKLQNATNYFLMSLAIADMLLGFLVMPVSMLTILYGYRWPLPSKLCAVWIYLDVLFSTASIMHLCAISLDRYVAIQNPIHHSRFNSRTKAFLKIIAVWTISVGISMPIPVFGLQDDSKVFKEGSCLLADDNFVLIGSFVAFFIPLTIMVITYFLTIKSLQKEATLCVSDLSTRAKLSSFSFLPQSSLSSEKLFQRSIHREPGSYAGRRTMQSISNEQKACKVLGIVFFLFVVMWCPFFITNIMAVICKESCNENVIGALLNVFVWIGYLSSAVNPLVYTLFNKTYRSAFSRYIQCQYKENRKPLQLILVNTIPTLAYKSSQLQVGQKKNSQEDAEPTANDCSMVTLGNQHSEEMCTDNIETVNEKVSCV

Vero = assay: viability loss in Vero cells – cell-based, plate reader, cherry-pick samples, cytotoxicity control, dose response (AID 687020); format: functional; conditions: Chlorocebus sabaeus
[4] = Counterscreen for […] of the human trace amine associated receptor 1 (TAAR1): Fluorescence-based cell-based high throughput dose response assay to identify nonselective Ga16 agonists.; format: functional
[5] = molecular target: T1, Trace amine-associated receptor 1 (Homo sapiens, UniProt Q96RJ0); assay: Fluorescence-based cell-based high throughput dose response assay to identify antagonists of the human trace amine associated receptor 1 (TAAR1).; format: functional
T1 sequence (Q96RJ0 whole entry): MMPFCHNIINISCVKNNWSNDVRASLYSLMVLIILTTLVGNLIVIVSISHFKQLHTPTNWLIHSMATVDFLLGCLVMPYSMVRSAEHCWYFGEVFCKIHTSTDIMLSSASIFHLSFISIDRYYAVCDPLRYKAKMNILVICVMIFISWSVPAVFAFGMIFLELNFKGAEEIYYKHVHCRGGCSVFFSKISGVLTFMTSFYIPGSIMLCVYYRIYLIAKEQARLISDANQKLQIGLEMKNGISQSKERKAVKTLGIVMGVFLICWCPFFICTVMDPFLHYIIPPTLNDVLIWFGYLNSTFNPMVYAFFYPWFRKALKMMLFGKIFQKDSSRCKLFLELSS

[6] = Counterscreen for antagonists of the human trace amine associated receptor 1 (hTAAR1): Fluorescence-based cell-based high throughput dose response assay to identify nonselective Ga16 antagonists.; format: functional
[7] = molecular target: T1, Trace amine-associated receptor 1; assay: Counterscreen for antagonists of the human trace amine associated receptor 1 (hTAAR1): Fluorescence-based cell-based high throughput dose response assay to identify TAAR1 Agonists.; format: functional
Beta-galactosidase = Beta-galactosidase (Escherichia coli, UniProt Q8VNN2); assay: Dose response counterscreen for EBI2 assay utilizing the enzyme, b-galactosidase.; format: functional
Beta-galactosidase, sequence (Q8VNN2 whole entry): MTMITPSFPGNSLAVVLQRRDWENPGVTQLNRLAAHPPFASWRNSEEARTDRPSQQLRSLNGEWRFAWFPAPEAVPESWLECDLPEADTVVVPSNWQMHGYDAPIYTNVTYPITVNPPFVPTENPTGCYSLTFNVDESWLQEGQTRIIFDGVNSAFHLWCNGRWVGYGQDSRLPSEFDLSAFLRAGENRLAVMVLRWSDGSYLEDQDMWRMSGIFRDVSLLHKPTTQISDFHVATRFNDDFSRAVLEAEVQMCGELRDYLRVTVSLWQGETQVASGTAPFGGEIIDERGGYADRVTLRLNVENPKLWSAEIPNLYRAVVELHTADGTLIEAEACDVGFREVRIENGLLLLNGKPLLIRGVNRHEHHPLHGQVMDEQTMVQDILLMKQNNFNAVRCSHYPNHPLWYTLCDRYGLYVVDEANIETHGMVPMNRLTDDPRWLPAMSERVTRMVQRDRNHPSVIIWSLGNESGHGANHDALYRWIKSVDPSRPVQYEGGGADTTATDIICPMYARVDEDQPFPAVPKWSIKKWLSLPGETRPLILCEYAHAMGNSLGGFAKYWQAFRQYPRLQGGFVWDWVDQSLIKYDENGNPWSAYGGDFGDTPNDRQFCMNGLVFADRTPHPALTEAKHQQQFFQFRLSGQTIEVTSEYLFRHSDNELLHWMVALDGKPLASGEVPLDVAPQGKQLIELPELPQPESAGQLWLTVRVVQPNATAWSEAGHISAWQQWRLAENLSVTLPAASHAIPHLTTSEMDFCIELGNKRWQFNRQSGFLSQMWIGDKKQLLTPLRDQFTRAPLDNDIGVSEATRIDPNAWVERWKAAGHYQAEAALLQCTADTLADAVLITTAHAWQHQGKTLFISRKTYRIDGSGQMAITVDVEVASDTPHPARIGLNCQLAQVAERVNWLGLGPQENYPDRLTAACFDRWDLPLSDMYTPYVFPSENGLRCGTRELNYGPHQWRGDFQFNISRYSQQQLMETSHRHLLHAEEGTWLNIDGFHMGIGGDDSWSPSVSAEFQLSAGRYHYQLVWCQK

[8] = molecular target: Potassium channel subfamily K member 9 (Homo sapiens, UniProt Q9NPC2); assay: KCNK9 flux blockade, concentration-response – cell-based, FluxOR thallium flux, selectivity assay for TASK1 inhibitor project, SAR follow-up (AID 652211); format: functional;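 also: potency is for inhibitors of the channel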
Potassium channel subfamily K member 9, sequence (Q9NPC2 whole entry): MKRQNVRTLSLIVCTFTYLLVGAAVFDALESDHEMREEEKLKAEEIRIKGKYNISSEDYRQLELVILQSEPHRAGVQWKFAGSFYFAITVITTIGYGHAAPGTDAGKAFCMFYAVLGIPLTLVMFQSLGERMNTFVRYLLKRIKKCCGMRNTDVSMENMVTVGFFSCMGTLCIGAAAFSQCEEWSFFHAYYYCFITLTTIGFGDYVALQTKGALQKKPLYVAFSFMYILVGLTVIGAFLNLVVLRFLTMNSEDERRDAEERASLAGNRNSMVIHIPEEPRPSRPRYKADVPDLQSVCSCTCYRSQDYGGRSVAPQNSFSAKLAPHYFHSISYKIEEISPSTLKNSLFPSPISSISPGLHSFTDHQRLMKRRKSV

[9] = molecular target: T2, Methionyl-tRNA synthetase, putative (Trypanosoma brucei brucei, UniProt Q38C91); format: functional, Trypanosoma brucei brucei strain 927/4 GUTat10.1
T2 sequence (Q38C91 whole entry): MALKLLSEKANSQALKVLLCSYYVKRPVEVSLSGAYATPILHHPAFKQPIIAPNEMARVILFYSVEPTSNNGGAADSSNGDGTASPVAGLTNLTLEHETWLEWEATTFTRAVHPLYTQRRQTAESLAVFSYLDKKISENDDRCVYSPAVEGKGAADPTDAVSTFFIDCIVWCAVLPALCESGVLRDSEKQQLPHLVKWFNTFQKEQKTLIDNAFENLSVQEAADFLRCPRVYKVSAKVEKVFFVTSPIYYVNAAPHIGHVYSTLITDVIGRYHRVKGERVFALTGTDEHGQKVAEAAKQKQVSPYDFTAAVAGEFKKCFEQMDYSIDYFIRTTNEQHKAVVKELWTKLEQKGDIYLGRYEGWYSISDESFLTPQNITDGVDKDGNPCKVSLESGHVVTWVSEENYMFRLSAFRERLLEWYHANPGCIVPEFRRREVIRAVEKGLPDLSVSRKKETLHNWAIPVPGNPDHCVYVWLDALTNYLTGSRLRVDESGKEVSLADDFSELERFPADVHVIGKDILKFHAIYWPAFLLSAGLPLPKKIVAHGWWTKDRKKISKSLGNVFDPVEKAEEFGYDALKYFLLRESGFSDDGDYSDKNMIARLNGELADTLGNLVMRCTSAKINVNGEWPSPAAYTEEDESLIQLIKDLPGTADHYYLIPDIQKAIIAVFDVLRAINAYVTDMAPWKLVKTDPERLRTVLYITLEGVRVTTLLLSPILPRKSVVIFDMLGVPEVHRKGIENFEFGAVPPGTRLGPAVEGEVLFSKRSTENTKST

[10] = Counterscreen for inhibitors of Trypanosoma brucei methionyl tRNA synthetase (MetRS): Luminescence-based cell-based high throughput dose response assay to identify compounds that are cytotoxic to Jurkat human T lymphocyte cells.; format: functional
[11] = molecular target: T2, Methionyl-tRNA synthetase, putative; format: functional, Trypanosoma brucei brucei strain 927/4 GUTat10.1; remark: listed apart in the source
[12] = Late stage counterscreen for inhibitors of Trypanosoma brucei methionyl tRNA synthetase (MetRS): Luminescence-based cell-based high throughput dose response assay to identify compounds that are cytotoxic to Jurkat human T lymphocyte cells.; format: functional
[13] = viability of PTEN-deleted HCT116 cells – cell-based, HCT116 PTEN knockout, dose response (AID 1047); format: functional;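 also: HCT116 colon tumor cells with PTEN knocked out; cells exposed to compound for 60 hours before readout; potency for loss of cell viability measured by luminescence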
[14] = viability of HCT116 lacking mutant beta-catenin – cell-based, human colon tumor, dose response (AID 1045); format: functional;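 also: HCT116 colon tumor cells with beta catenin knocked out; cells exposed to compound for 60 hours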
[15] = molecular target: T3, Mannose-6-phosphate isomerase (Homo sapiens, UniProt P34949); assay: MPI inhibition at elevated mannose 6-phosphate – biochemical, fluorescence intensity, high mannose 6-phosphate, primary screen (AID 1220)
T3 sequence (P34949 whole entry): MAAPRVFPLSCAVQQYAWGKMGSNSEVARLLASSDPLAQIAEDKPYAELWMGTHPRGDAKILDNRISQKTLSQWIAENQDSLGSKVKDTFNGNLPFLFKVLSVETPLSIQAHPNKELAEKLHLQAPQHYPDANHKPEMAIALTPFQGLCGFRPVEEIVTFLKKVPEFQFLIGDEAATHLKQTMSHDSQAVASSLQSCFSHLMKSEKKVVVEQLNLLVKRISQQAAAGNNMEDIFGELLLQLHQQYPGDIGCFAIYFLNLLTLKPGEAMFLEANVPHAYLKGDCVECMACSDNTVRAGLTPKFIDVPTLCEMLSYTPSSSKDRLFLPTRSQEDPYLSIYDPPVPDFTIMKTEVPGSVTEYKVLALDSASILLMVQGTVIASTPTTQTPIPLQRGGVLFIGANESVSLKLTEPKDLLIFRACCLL

[16] = molecular target: Heat shock protein HSP 90-alpha (Homo sapiens, UniProt P07900); format: functional, organism-based
INS1 = assay: INS-1E survival protection against cytokine death – cell-based, luminescence, retest, dose response (AID 449756); format: functional; conditions: Rattus norvegicus, INS1;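 also: cell death triggered by IL-1 beta plus TNF-alpha plus IFN-gamma mixture; protective hits raise ATP signal compared with cytokine alone wells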
[17] = Fluorescence-based cell-based high throughput dose response assay for inhibitors of the interaction of nucleotide-binding oligomerization domain containing 2 (NOD2) and the receptor-interacting serine-threonine kinase 2 (RIPK2).; format: functional; conditions: Homo sapiens
Beta Lactamase = Beta Lactamase (Pseudomonas aeruginosa, UniProt Q932Y6); assay: BLA reporter interference, concentration series – BLA reporter cells, FRET fluorescence, artefact control for NOD2-RIPK2 interaction inhibitor project, dose response (AID 651552); format: functional, cell-based
Beta Lactamase, sequence (Q932Y6 whole entry): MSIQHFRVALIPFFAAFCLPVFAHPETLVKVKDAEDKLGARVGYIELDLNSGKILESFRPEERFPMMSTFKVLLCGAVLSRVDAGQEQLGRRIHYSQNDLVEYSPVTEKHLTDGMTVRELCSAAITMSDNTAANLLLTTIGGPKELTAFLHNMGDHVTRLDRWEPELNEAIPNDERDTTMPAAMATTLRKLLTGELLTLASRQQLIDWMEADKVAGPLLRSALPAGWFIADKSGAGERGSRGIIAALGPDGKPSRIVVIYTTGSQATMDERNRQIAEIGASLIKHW

[18] = molecular target: Long-chain-fatty-acid--AMP ligase FadD28 (Mycobacterium tuberculosis, UniProt P9WQ59); assay: Fluorescence polarization aasay to screen for inhibitors that compete for the binding of FadD28 to a bisubstrate Measured in Biochemical System Using Plate Reader - 2147-01_Inhibitor_Dose_CherryPick_Activity.; format: functional, Mycobacterium tuberculosis H37Rv
Galanin receptor type 3 = Galanin receptor type 3 (Homo sapiens, UniProt O60755); assay: Fluorescence-based cell-based primary high throughput dose response assay to identify antagonists of the Galanin Receptor 3 (GalR3).; format: functional
Galanin receptor type 3, sequence (O60755 whole entry): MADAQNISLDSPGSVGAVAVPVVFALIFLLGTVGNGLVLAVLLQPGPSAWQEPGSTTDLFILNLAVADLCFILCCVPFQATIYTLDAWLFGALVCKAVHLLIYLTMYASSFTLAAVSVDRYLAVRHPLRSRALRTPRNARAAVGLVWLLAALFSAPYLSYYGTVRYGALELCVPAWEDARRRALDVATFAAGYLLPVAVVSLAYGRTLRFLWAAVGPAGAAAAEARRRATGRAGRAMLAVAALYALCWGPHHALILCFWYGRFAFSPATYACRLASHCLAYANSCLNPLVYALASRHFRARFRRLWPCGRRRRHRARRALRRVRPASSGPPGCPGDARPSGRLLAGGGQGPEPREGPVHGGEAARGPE

cells = format: functional, cell-based; conditions: HEK-CNG
[19] = molecular target: Alkaline phosphatase, placental type (Homo sapiens, UniProt P05187); assay: human placental alkaline phosphatase inhibition – biochemical, luminescence, confirmation (AID 1512); format: functional
Alkaline phosphatase, placental type, sequence (P05187 whole entry): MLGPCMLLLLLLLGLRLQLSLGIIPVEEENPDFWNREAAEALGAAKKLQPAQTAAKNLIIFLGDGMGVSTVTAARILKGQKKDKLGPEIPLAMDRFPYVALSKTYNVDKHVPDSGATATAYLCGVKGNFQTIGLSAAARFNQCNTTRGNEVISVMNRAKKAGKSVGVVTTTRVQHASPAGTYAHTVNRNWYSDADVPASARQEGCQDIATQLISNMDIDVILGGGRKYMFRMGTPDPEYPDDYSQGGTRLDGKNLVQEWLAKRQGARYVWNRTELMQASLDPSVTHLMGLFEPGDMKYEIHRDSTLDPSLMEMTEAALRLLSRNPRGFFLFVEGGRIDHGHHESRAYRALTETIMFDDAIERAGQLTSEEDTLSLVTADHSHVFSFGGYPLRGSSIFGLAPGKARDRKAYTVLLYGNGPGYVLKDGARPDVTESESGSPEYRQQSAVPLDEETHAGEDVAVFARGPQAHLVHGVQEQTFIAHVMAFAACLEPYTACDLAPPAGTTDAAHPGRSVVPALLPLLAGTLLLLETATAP

[20] = HGIII-sPLA2 enzyme inhibition potency – biochemical, QFRET, IC50, dose response (AID 743457);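 also: green fluorescence rise as the enzyme cleaves BODIPY PC-A2 in liposomes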
[21] = viability loss in HepG2 hepatoma cells – cell-based, cherry-picks, set 5, cytotoxicity control, dose response (AID 1053118); format: functional
HEK293 [22] = assay: inhibition of NOD1-driven NF-kB reporter – cell-based, luminescence, uHTS, primary screen (AID 1578); format: functional; conditions: Homo sapiens
HEK293 [23] = assay: cells; format: functional, cell-based; conditions: Homo sapiens
HEK293 [24] = assay: cells; format: functional, cell-based; conditions: Homo sapiens; remark: listed apart in the source
HEK293 [25] = assay: NOD2 signaling inhibitors in MDP-stimulated cells, cell-based, uHTS, luminescence (AID 2001); format: functional; conditions: Homo sapiens
[26] = molecular target: ADP-ribosylation factor GTPase-activating protein 1 (Rattus norvegicus, UniProt Q62848); assay: Fluorescence polarization-based biochemical high throughput dose response screening assay to identify inhibitors of ADP-ribosylation factor GTPase activating protein 1 (ARFGAP1).; format: functional
ADP-ribosylation factor GTPase-activating protein 1, sequence (Q62848 whole entry, the tested form may be a part): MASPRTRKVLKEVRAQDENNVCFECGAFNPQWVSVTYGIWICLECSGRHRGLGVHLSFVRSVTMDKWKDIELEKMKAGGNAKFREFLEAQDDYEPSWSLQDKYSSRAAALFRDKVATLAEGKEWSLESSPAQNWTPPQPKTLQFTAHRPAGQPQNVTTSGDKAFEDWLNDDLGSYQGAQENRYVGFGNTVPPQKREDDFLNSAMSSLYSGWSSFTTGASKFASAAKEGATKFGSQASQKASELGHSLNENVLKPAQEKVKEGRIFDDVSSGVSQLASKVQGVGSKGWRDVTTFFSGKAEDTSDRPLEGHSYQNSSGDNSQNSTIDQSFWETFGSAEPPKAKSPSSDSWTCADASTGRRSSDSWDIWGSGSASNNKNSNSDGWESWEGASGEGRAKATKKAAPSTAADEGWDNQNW

[27] = molecular target: Arf-GAP with SH3 domain, ANK repeat and PH domain-containing protein 1 (Homo sapiens, UniProt Q9ULH1); format: functional;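 also: biochemical fluorescence polarization dose–response screen measuring inhibition of ASAP1; ASAP1 GAP domain stimulating GTP hydrolysis by truncated human ARF1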
[28] = molecular target: Matrix metalloproteinase-14 (Homo sapiens, UniProt P50281); assay: Dose Response confirmation of uHTS hits for a small molecule inhibitors of MT1-MMP activation in a fluorescence assay set 1.; format: functional
[29] = molecular target: T4, Beta-2 adrenergic receptor (Homo sapiens, UniProt P07550); assay: Dose response for HTS for Beta-2AR agonists via FAP method from Powderset1.; format: functional
T4 sequence (P07550 whole entry): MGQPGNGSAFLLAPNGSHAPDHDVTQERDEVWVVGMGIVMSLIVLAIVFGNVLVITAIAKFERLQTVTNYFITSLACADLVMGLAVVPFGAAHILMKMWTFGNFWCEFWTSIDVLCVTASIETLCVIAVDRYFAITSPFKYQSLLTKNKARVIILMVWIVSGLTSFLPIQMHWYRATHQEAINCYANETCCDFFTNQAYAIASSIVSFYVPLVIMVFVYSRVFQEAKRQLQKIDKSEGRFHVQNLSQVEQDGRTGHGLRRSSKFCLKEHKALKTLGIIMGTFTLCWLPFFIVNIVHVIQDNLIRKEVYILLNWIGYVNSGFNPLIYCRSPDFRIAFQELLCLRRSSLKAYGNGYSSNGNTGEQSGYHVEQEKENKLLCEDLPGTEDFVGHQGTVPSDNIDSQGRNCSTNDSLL

[30] = molecular target: T4, Beta-2 adrenergic receptor; assay: ADRB2 activation measured by internalization – cell-based, FAP fluorogen, flow cytometry, cherry pick 1, dose response (AID 588763); format: functional

Induced myeloid leukemia cell differentiation protein Mcl-1, sequence (Q07820 whole entry): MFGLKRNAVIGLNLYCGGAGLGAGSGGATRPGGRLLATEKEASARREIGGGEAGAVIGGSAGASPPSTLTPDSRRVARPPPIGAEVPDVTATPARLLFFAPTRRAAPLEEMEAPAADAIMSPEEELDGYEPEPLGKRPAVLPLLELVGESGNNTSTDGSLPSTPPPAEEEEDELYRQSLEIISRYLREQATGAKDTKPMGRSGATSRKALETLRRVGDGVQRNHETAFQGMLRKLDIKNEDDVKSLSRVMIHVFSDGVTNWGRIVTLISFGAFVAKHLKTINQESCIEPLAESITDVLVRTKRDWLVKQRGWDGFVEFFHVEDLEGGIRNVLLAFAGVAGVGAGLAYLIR

CN1CCN(c2ccc(Cl)cc2NC(=O)c2ccc(S(=O)(=O)N3CCCCCC3)cc2)CC1
IC50 [1]: 3.55 µM (active)
AC50 [2]: 5.58 µM (active)

OCC1(Cc2ccc(Cl)cc2)CCN(CCCc2ccccc2)CC1
EC50 (Mu-type opioid receptor): 92.5 µM (inactive)
EC50 [3]: 76.1 µM (inactive)

Cc1cc(C)n2c(Nc3c(C)cccc3C)c(CCc3ccccc3)nc2n1
AC50 (Vero): 33.3 µM (active)

CCOC(=O)C1CCCN(c2c(C(=O)c3ccccc3)cnc3ccc(OC)cc23)C1 (configuration not stated)
EC50 [4]: > 29.9 µM (inactive)
IC50 [5]: 4.06 µM (active)
IC50 [6]: > 29.9 µM (inactive)
EC50 [7]: 11.6 µM (inactive)

S=C(NCC1CCCO1)N1CCN(c2nc(-c3ccc(Cl)cc3)cs2)CC1 (configuration not stated)
IC50 (Beta-galactosidase): > 80 µM (inactive)

O=C(Nc1cccc(NC(=O)c2ccccn2)c1)c1ccccc1
IC50 [8]: 5.37 µM (active)

C[C@H](O)[C@@H]1C(=O)N2CCc3c([nH]c4ccccc34)[C@@H]2C[C@@H]1N(C)Cc1ccc2c(c1)OCO2
IC50 [9]: 1.34 µM (active)
IC50 [10]: 83.3 µM (inactive)
IC50 [11]: 672 nM (active)
IC50 [12]: > 83.3 µM (inactive)

CC1=C(C)/C(=N\OS(=O)(=O)c2ccc(C)cc2)C=CC1=O
EC50 [13]: 35.2 µM (active)
EC50 [14]: 37.6 µM (active)
IC50 [15]: 5.11 µM (active)
AC50 [16]: 1.61 µM (active)
AC50 (INS1): 2.15 µM (active)
IC50 [17]: 3.42 µM (active)
IC50 (Beta Lactamase): 31 µM (inactive)

CCc1cccc2c(C(=O)COC(=O)c3cnc(C)cn3)c[nH]c12
AC50 [18]: 20 µM (active)

CNc1ccccc1C(C)(C)c1cc(-c2ccc(F)cc2)no1
IC50 (Galanin receptor type 3): 3.74 µM (active)
EC50 (cells): > 29.9 µM (inactive)

COc1ccccc1N=C(S)NNC(=O)c1nn(C)c(C)c1Br
IC50 [19]: > 100 µM (inactive)
IC50 [20]: > 122 µM (inactive)

N#C[C@H]1[C@@H](c2ccccc2C2=CCCCC2)[C@H](CO)N1S(=O)(=O)c1ccccc1
AC50 [21]: > 47 µM (inactive)

Clc1cccc(Cl)c1CONC=Nc1ncnc2sccc12
EC50 (HEK293 [22]): > 20 µM (inactive)
IC50 (HEK293 [23]): 7.79 µM (active)
IC50 (HEK293 [24]): > 20 µM (inactive)
IC50 (HEK293 [25]): 8.22 µM (active)
IC50 [26]: 30.3 µM (inactive)
IC50 [27]: 12.3 µM (inactive)

CNc1c(C(=O)O)ccc2c1C(=O)c1ccccc1C2=O
IC50 [28]: 18.5 µM (active)

CC(C)(C)c1ccc(OCC(=O)Nc2ccc(-c3nc4cccnc4o3)cc2)cc1
EC50 [29]: 19.9 nM (active)
EC50 [30]: 67.2 nM (active)
